Experimental data taken from publication PMC6167110, “NgcE^Sco Acts as a Lower-Affinity Binding Protein of an ABC Transporter for the Uptake of N,N′-Diacetylchitobiose in Streptomyces coelicolor A3(2)” (Microbes and Environments, 2018).
Blank lines part the entries; values can stand above or below the molecule they belong to.

Columns and labels:
NgcE^Sco (SCO6005) [1] = molecular target: T1, NgcE^Sco (SCO6005) (Streptomyces coelicolor, UniProt O50499); experiment: isothermal titration calorimetry; assay type: binding; details: 20 mM Tris/HCl pH 8.0, 30°C; single-site fit
T1 construct: without putative signal peptide (29 N-terminal residues); from E. coli
T1 sequence (O50499 30-469): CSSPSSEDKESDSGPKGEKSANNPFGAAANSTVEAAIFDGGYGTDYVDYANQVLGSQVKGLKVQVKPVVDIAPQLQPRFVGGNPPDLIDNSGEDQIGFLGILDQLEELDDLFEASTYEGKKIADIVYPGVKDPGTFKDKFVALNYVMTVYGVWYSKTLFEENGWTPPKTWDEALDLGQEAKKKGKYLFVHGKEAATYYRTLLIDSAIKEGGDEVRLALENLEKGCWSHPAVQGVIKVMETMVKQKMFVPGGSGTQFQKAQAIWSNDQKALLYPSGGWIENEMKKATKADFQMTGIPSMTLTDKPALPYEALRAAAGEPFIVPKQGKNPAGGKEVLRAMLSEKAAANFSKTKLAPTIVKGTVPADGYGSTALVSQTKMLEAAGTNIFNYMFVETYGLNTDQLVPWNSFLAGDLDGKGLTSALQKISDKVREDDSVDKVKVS
From the text: isothermal titration calorimetry on NgcE^Sco (SCO6005)

[2] = molecular target: T2, NgcE of S. olivaceoviridis (Streptomyces olivaceoviridis, UniProt Q8RJV0); experiment: intrinsic protein fluorescence titration; assay type: binding; details: fluorescence increase
T2 construct: N-terminally His-tagged, from E. coli carrying pQEH301
T2 sequence (Q8RJV0 47-489): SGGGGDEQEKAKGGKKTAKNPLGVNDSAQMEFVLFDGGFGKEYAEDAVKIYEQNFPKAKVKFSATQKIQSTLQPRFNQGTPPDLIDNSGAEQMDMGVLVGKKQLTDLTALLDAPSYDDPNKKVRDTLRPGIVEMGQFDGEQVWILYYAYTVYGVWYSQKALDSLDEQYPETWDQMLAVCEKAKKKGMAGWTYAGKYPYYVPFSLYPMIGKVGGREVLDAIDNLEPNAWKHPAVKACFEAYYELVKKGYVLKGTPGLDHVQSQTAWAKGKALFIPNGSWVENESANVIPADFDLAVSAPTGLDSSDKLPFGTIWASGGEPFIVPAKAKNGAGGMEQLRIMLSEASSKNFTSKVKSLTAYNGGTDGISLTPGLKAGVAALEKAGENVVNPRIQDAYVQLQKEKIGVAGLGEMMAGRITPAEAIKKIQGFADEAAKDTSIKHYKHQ

DasR (DasR-6His) = molecular target: T3, DasR (DasR-6His) (Streptomyces coelicolor, UniProt Q9K492); experiment: EMSA, inhibition of DasR binding to dre^ngcE DNA; details: Cy5-labeled dre^ngcE DNA probe; allosteric
T3 construct: DasR-6His from pFT240, expressed in E. coli BL21(DE3), Ni-agarose purified

NgcE^Sco (SCO6005) [3] = molecular target: T1, NgcE^Sco (SCO6005); experiment: intrinsic protein fluorescence titration; assay type: binding
DasR-6His = molecular target: T4, DasR-6His (Streptomyces coelicolor A3(2), UniProt Q9K492 1-254); experiment: EMSA; EMSA: Cy5 probe ~0.1 mM and DasR-6His ~1 mM (so in the source); probably uM) in 50 uL, 1% agarose gel; buffer, salt, pH and temperature not given; details: protein: recombinant; tags: C-terminal 6xHis; chain copies: 2; label: Cy5 on the printed strand; blunt
T4 sequence: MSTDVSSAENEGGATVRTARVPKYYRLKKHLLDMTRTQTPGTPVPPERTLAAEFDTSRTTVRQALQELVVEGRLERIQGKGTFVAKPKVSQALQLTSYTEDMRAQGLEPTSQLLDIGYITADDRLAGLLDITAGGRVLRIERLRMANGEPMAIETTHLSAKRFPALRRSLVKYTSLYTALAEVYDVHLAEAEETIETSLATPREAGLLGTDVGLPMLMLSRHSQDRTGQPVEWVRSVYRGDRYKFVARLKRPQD

Kd (NgcE^Sco (SCO6005) [1]): 1150 nM
Kd [2]: 85 nM
Molecule: CC(=O)N[C@H]1C(O)O[C@H](CO)[C@@H](O)[C@@H]1O (stereo partly shown) [GlcNAc]

Molecule: CC(=O)N[C@H]1C(O)O[C@H](COP(=O)(O)O)[C@@H](O)[C@@H]1O (stereo partly shown) [GlcNAc-6P]
EMSA, inhibition of DasR binding to dre^ngcE DNA (DasR (DasR-6His)): binding of DasR to the dre^ngcE-containing probe was inhibited by GlcNAc-6P and GlcN-6P

Kd (NgcE^Sco (SCO6005) [3]): 25000 nM
Molecule: CC(=O)N[C@H]1C(O)O[C@H](CO)[C@@H](O)[C@@H]1O[C@H](C)C(=O)O (stereo partly shown) [MurNAc]

Kd (NgcE^Sco (SCO6005) [3]): 12000 nM
Molecule: CC(=O)N[C@H]1C(O)O[C@H](CO)[C@H](O)[C@@H]1O (stereo partly shown) [GalNAc]

Kd (NgcE^Sco (SCO6005) [1]): 1530 nM
Molecule: CC(=O)N[C@H]1[C@H](O[C@H]2[C@H](O)[C@@H](NC(C)=O)C(O)O[C@@H]2CO)O[C@H](CO)[C@@H](O)[C@@H]1O (stereo partly shown) [(GlcNAc)2]

Molecule: N[C@H]1C(O)O[C@H](COP(=O)(O)O)[C@@H](O)[C@@H]1O (stereo partly shown) [GlcN-6P]
EMSA, inhibition of DasR binding to dre^ngcE DNA (DasR (DasR-6His)): binding of DasR to the dre^ngcE-containing probe was inhibited by GlcNAc-6P and GlcN-6P

B1: drengcE (dsDNA)
DNA 1: CCGCCAAGCGAAAGTGGACTATACCTGTCGGCACTCCGGG
DNA 2: CCCGGAGTGCCGACAGGTATAGTCCACTTTCGCTTGGCGG
binding result (DasR-6His): binds

B2: dredasA (dsDNA)
DNA 1: CAAGCTCCCCGTACTGGTCTACACCATTGGTCCAGGTCCC
DNA 2: GGGACCTGGACCAATGGTGTAGACCAGTACGGGGAGCTTG
binding result (DasR-6His): binds

B3: drenagKA (dsDNA)
DNA 1: CGTACACCCGGGAGAGGTCTAGTCCACTGCGGTGGTGTAG
DNA 2: CTACACCACCGCAGTGGACTAGACCTCTCCCGGGTGTACG
binding result (DasR-6His): binds
